For one data set, the system named is Anas platyrhynchos. The following applies: for LC50: short-term, oral, feed, mortality.
The subject of a further data set is Colinus virginianus. The following applies: acute, oral, mortality.
The test system of a further data set is Daphnia magna. As to conditions: chronic/long-term; duration: 21 days; reproduction.
The next data set has as its system Lepomis macrochirus. As to conditions: acute; duration: 96 hours; mortality.
For the next data set, the system named is Tagia sp. The following applies: for LC50: acute, mortality.
A further data set concerns Apis mellifera. As to conditions: acute, duration: 48 hours, mortality.
A further data set concerns Plant. As to conditions: not reported; no effects.
The next data set deals with Rattus norvegicus. As to conditions: for NOAEL: reproduction developmental.
For another data set, the system named is Aphidius rhopalosiphi. Kind of data set: LR50; higher = less toxic. As to conditions: not reported; mortality.
A further data set deals with Orius insidiosus. Kind of data set: LR50; higher = less toxic. The following applies: not reported; mortality.

In brackets after ≈: the same amount, converted by molar mass.

As for `CNC(=O)ON=C(C)SC` [Methomyl], the LC50 in the data set with Anas platyrhynchos came to 658 mg/kg-day; with Lepomis macrochirus, 0.62 µg/mL (≈ 3.82 µM); in the data set with Tagia sp. (duration: 14 days) it was 19 mg/kg. Besides, the LD50 in the data set with Colinus virginianus was determined as 24.2 mg/kg-day. Moreover, the NOEC with Daphnia magna worked out at 0.0016 mg/L.

One may read the LOAEL as the lowest dose or exposure tested at which an adverse effect was seen. Usually NOAEL stands for the highest dose or exposure tested at which no adverse effect was seen. As for `CSC(C)=NOC(=O)N(C)SN(C)C(=O)ON=C(C)SC` [Thiodicarb], the NOEC in the data set with Anas platyrhynchos (reproductive) stood at 500 mg/kg; in the data set with Tagia sp. (chronic/long-term), 2 mg/kg. The LC50 is greater than 5620 mg/kg in the data set with Anas platyrhynchos, greater than 5620 mg/kg in the data set with Colinus virginianus (diet), 1.4 µg/mL (≈ 3.95 µM) in the data set with Lepomis macrochirus and 38.5 mg/kg in the data set with Tagia sp.. Also, the LD50 was determined as 3.1 µg/piece with Apis mellifera (dermal); 0.153 µg/piece in the data set with Apis mellifera (oral, unspecified); 2020 mg/kg-day in the data set with Colinus virginianus; 50 mg/kg-day with Rattus norvegicus (acute, oral, mortality). The LEL with Plant is 950 g/ha. The same compound yielded an LOAEL in the data set with Rattus norvegicus (acute, oral, gavage, neurology) of less than 5 mg/kg-day. For the same compound, the no-observed-adverse-effect level (NOAEL) in the data set with Rattus norvegicus (body weight) is 1 mg/kg-day; in the data set with Rattus norvegicus (oral, diet, mortality), 7 mg/kg-day; in the data set on Rattus norvegicus (reproduction), 84 mg/kg-day. In addition, the results for the LR50 with Aphidius rhopalosiphi and with Orius insidiosus were 0.4 g/ha and 25.4 g/ha, respectively.
